According to US20260103479A1, “PRODRUGS OF OPICAPONE” (BIAL- PORTELA & CA, S.A., priority 2022, published 2026):
Like-named read-outs stand apart in the source and are kept apart here.

Experiments:
[1] = In vitro stability in human plasma; type: in vitro ADME; details: 1 μM; after 0.75 h
Description: (§1) The stability of 1 μM of compound 1 was assessed in the following fractions: phosphate buffer, human plasma, rat plasma, human liver S9 fraction, rat liver S9 fraction and rat liver homogenates.
(§2) Reaction was initiated by adding of 1 μM of test compound to the desired matrix (plasma, liver homogenate at 0.4 g/mL or S9 fraction at 1 mg/mL, respectively), with a final volume of 350 μL. At the following time points 0, 5, 15, 30, 45, 60 min, 50 μL of sample is taken and precipitated with 200 μL of acetonitrile 1% formic acid containing the internal standard (opicapone ^13C6) at 1 μM. Samples were centrifuged at 20,000 g at 4° C. for 10 min, and then analysed by LC-MS/MS using a bioanalytical method previously developed in-house.
(§3) The stability of 1 μM of compound 4 was assessed in the following fractions: phosphate buffer, human plasma, rat plasma, human liver S9 fraction, rat liver S9 fraction and rat liver homogenates.
(§4) Reaction was initiated by adding 1 μM of test compound to the desired matrix (plasma or S9 fraction at 1 mg/mL), with a final volume of 250 μL. […] Samples were centrifuged at 20,000 g at 4° C. for 10 min, and then analysed by LC-MS/MS using bioanalytical methods previously developed in-house. […]

[2] = In vitro stability in rat liver S9 fraction; type: in vitro ADME; details: 1 μM; S9 1 mg/mL; after 0.75 h
Description: as §1, §2, §3, §4

[3] = In vitro stability / conversion to opicapone in rat liver homogenates; type: in vitro ADME; details: 1 μM
Description: as §1, §2, §3
Reaction was initiated by adding 1 μM of test compound to the desired matrix (plasma or S9 fraction at 1 mg/mL), with a final volume of 250 μL. For plasma, at the time points of 0, 15, 30, 45 and 60 min of incubation, 50 μL of sample is taken and precipitated with 100 μL of internal standard working solution (ISWS) consisting of acetonitrile 1% formic acid containing the internal standard (opicapone ^13C6) at 1 μM. For S9 fraction, 50 μL of sample was taken and precipitated with 100 μL of ISWS after 60 min of incubation. For rat liver homogenates (0.2 g/mL of protein), reaction was initiated by adding of 1 μM of test compound with a final volume of 350 μL. At the following time points of 0, 5, 15, 30, 45, 60 min of incubation, 50 μL of sample is taken and precipitated with 200 μL ISWS. Samples were centrifuged at 20,000 g at 4° C. for 10 min, and then analysed by LC-MS/MS using bioanalytical methods previously developed in-house. Compound 4 was stable in all matrices with exception of rat liver homogenates, where the remaining compound was of approximately 31%, after 60 min of incubation. Solutions of the test compounds were prepared at 10 μM using 50 mM potassium phosphate buffer (KPB) at pH 7.4, by adding 1 μL of compound stock at 10 mM to 999 μL KPB 50 mM.

[4] = Stability in buffer at pH 1.2, 4.5 and 6.8; type: physicochemical; details: 2500 ng/mL, 37° C.; for stability in buffer at pH 1.2 / stability in buffer at pH 4.5 / stability in buffer at pH 6.8: 4 hours
Description: The stability of 2500 ng/mL of compounds 1 and 4 was assessed at different pH values of 1.2, 4.5 and 6.8 over 4 hours at 37° C. • Buffer solutions were prepared as follows: • Buffer solution pH 1.2: • To prepare 1L: • 3.73 g potassium chloride • 7 mL HCl37% • Add purified water • Check/Adjust pH to 1.20±0.05 (using solutions: HCl 1M and/or NaOH 1M) • Buffer solution pH 4.5 • To prepare 1L: • 2.99 g sodium acetate trihydrate • 14 mL acetic acid 2M • Add purified water • Check/Adjust pH to 4.50±0.05 (using solutions: acetic acid 2M and/or NaOH 1M) • Buffer solution pH 6.8 • To prepare 1L: • 6.81 g potassium dihydrogen phosphate • 22 mL NaOH 1M • Add purified water • Check/Adjust pH to 6.80±0.05 (using solutions: HCl 1M and/or NaOH 1M)

erythrocyte S-COMT = target: T1, erythrocyte S-COMT (Rattus norvegicus, UniProt P22734); experiment: Subcutaneous pharmacodynamics: erythrocyte S-COMT activity (adrenaline to metanephrine); type: in vivo, male Wistar rats; details: sc, s.c. 3 mg/kg
T1 construct: from tissue; host or cells: erythrocytes of male Wistar rats (haemolysate supernatant, 20 000 x g)
T1 sequence (P22734 1-221 isoform P22734-2): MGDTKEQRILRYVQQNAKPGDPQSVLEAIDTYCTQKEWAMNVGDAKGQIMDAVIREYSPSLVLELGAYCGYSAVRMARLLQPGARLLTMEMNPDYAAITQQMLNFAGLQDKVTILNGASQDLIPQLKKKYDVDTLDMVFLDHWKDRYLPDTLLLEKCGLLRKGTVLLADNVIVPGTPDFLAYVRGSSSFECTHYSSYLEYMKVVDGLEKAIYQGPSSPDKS
Description: The pharmacodynamic properties of compounds 1 and 4 compared to oral administered micronized crystalline opicapone were assessed by subcutaneous injection to 4 male Wistar rats (3 mg/kg; DMSO:20% HPBCD (1:9)) then measurement of erythrocyte S-COMT activity over time.
During the studies, blood was collected at different time points, from tail vein, spun at 1500×g in a refrigerated centrifuge (4° C.) for 15 min, and the plasma and erythrocytes obtained were stored at −80° C. until further analysis. The plasma samples collected were analysed for compound 1, compound 4 and opicapone exposure, as previously described
Erythrocyte S-COMT activity was evaluated by the ability to methylate adrenaline to metanephrine. Aliquots of erythrocytes were haemolyzed by addition of 4 volumes of ice-cold ultrapure water and homogenization in a bead mill homogenizer, using glass beads, followed by 10 minutes incubation on wet ice. After centrifugation (20 000×g, 20 minutes, 4° C.), the supernatant containing S-COMT was quantified for total protein using Bradford assay. Supernatants were diluted with water to 4 mg total protein per ml. 100 μL of these diluted supernatants were then pre-incubated in a 96-well plate for 20 min with 80 μL of phosphate buffer (10 mM, pH 7.8); thereafter, the reaction mixture was incubated for 10 min with adrenaline (10 mM; 20 μL) in the presence of a saturating concentration of S-adenosyl-L-methionine, the methyl donor (500 μM). The incubation medium also contained pargyline (100 μM), MgCl2, (100 μM) and EGTA (1 mM). The pre-incubation and incubation were carried out at 37° C., under conditions of light protection with continuous shaking and without oxygenation. At the end of the incubation period the plate was transferred to ice and the reaction was stopped by the addition of 15 μL of glacial acetic acid. 60 μL of each sample were then transferred to a new 96-well containing 400 μL of 0.1% formic acid, followed by plate centrifugation (2000×g, 5 minutes 4° C.). The supernatants were used for the quantification of metanephrine by LC-MS/MS.

[5] = 2 h after dosing, read-out: maximal inhibition of COMT activity in erythrocytes
[6] = at least until 8 h post-dosing, read-out: inhibition of COMT maintained

Compound	stability in human plasma [1]	stability in rat liver S9 fraction [2]	conversion to opicapone in rat liver homogenates [3]	% remaining of the parent compound ([3]; rat liver homogenate 0.4 g/mL, after 0.5 h)	solubility in buffer at pH 1.2 [4]	stability in buffer at pH 1.2 [4]	stability in buffer at pH 4.5 [4]	stability in buffer at pH 6.8 [4]	inhibition at 3 mg/kg (erythrocyte S-COMT; [5]) [%]	inhibition at 3 mg/kg (erythrocyte S-COMT; [6]) [%]	remaining compound ([3]; rat liver homogenates 0.2 g/mL, after 60 min of incubation)
Cc1c(Cl)c(C)[n+]([O-])c(Cl)c1-c1noc(-c2cc(OP(=O)(O)O)c(O)c([N+](=O)[O-])c2)n1 [Compound 1, 2,5-dichloro-3-(5-(4-hydroxy-3-nitro-5-(phosphonooxy)phenyl)-1,2,4-oxadiazol-3-yl)-4,6-dimethylpyridine 1-oxide]	stable	stable	successfully converted to opicapone	less than 25%	not immediately soluble	stable	stable	stable	96	> 80	–
Cc1c(Cl)c(C)[n+]([O-])c(Cl)c1-c1noc(-c2cc(OCOP(=O)(O)O)c(O)c([N+](=O)[O-])c2)n1 [Compound 4, 2,5-dichloro-3-(5-(4-hydroxy-3-nitro-5-((phosphonooxy)methoxy)phenyl)-1,2,4-oxadiazol-3-yl)-4,6-dimethylpyridine 1-oxide]	stable	stable	successfully converted to opicapone	–	–	stable	stable	stable	94	> 80	approximately 31%
